Assay results as given in ChEMBL document CHEMBL5055675, “Apoptosis Inducing 1,3,4-Oxadiazole Conjugates of Capsaicin: Their In Vitro Antiproliferative and In Silico Studies” (ACS Med Chem Lett, 2021).

Experiments:
Assay type in all cases: functional
CCRF-CEM = test: Antiproliferative activity against human CCRF-CEM cells assessed as cell growth at 10 uM incubated for 48 hrs by sulforhodamine B assay relative to control; settings: read-out: Activity
K562 = test: Antiproliferative activity against human K562 cells assessed as cell growth at 10 uM incubated for 48 hrs by sulforhodamine B assay relative to control; settings: read-out: Activity
COLO 205 = test: Antiproliferative activity against human COLO 205 cells assessed as cell growth at 10 uM incubated for 48 hrs by sulforhodamine B assay relative to control; settings: read-out: Activity
MCF7 = test: Antiproliferative activity against human MCF7 cells assessed as cell growth at 10 uM incubated for 48 hrs by sulforhodamine B assay relative to control; settings: read-out: Activity
LOX IMVI = test: Antiproliferative activity against human LOX IMVI cells assessed as cell growth at 10 uM incubated for 48 hrs by sulforhodamine B assay relative to control; settings: read-out: Activity
HCC 2998 = test: Antiproliferative activity against human HCC 2998 cells assessed as cell growth at 10 uM incubated for 48 hrs by sulforhodamine B assay relative to control; settings: read-out: Activity
DU-145 = test: Antiproliferative activity against human DU-145 cells assessed as cell growth at 10 uM incubated for 48 hrs by sulforhodamine B assay relative to control; settings: read-out: Activity
HCT-116 = test: Antiproliferative activity against human HCT-116 cells assessed as cell growth inhibition measured after 72 hrs by crystal violet staining based assay; settings: HCT-116, 72 h
M14 = test: Antiproliferative activity against human M14 cells assessed as cell growth at 10 uM incubated for 48 hrs by sulforhodamine B assay relative to control; settings: read-out: Activity
A498 = test: Antiproliferative activity against human A498 cells assessed as cell growth at 10 uM incubated for 48 hrs by sulforhodamine B assay relative to control; settings: read-out: Activity
SF-539 = test: Antiproliferative activity against human SF-539 cells assessed as cell growth at 10 uM incubated for 48 hrs by sulforhodamine B assay relative to control; settings: read-out: Activity
PC-3 = test: Antiproliferative activity against human PC-3 cells assessed as cell growth at 10 uM incubated for 48 hrs by sulforhodamine B assay relative to control; settings: read-out: Activity
HOP-62 = test: Antiproliferative activity against human HOP-62 cells assessed as cell growth at 10 uM incubated for 48 hrs by sulforhodamine B assay relative to control; settings: read-out: Activity
RXF 393 = test: Antiproliferative activity against human RXF 393 cells assessed as cell growth at 10 uM incubated for 48 hrs by sulforhodamine B assay relative to control; settings: read-out: Activity
NCI-H460 = test: Antiproliferative activity against human NCI-H460 cells assessed as cell growth inhibition measured after 72 hrs by crystal violet staining based assay; settings: NCI-H460, 72 h
SW-620 = test: Antiproliferative activity against human SW-620 cells assessed as cell growth at 10 uM incubated for 48 hrs by sulforhodamine B assay relative to control; settings: read-out: Activity
SNB-19 = test: Antiproliferative activity against human SNB-19 cells assessed as cell growth at 10 uM incubated for 48 hrs by sulforhodamine B assay relative to control; settings: read-out: Activity
TK-10 = test: Antiproliferative activity against human TK-10 cells assessed as cell growth at 10 uM incubated for 48 hrs by sulforhodamine B assay relative to control; settings: read-out: Activity
SK-MEL-5 = test: Antiproliferative activity against human SK-MEL-5 cells assessed as cell growth at 10 uM incubated for 48 hrs by sulforhodamine B assay relative to control; settings: read-out: Activity
Hs-578T = test: Antiproliferative activity against human Hs-578T cells assessed as cell growth at 10 uM incubated for 48 hrs by sulforhodamine B assay relative to control; settings: read-out: Activity
ACHN = test: Antiproliferative activity against human ACHN cells assessed as cell growth at 10 uM incubated for 48 hrs by sulforhodamine B assay relative to control; settings: read-out: Activity
MOLT-4 = test: Antiproliferative activity against human MOLT-4 cells assessed as cell growth at 10 uM incubated for 48 hrs by sulforhodamine B assay relative to control; settings: read-out: Activity
BT-549 = test: Antiproliferative activity against human BT-549 cells assessed as cell growth at 10 uM incubated for 48 hrs by sulforhodamine B assay relative to control; settings: read-out: Activity
A549 = test: Antiproliferative activity against human A549/ATCC cells assessed as cell growth at 10 uM incubated for 48 hrs by sulforhodamine B assay relative to control; settings: read-out: Activity
SK-OV-3 [1] = test: Antiproliferative activity against human SK-OV-3 cells assessed as cell growth inhibition measured after 72 hrs by crystal violet staining based assay; settings: SK-OV-3, 72 h
KM12 = test: Antiproliferative activity against human KM12 cells assessed as cell growth at 10 uM incubated for 48 hrs by sulforhodamine B assay relative to control; settings: read-out: Activity
SK-OV-3 [2] = test: Antiproliferative activity against human SK-OV-3 cells assessed as cell growth at 10 uM incubated for 48 hrs by sulforhodamine B assay relative to control; settings: read-out: Activity
NCI-H226 = test: Antiproliferative activity against human NCI-H226 cells assessed as cell growth at 10 uM incubated for 48 hrs by sulforhodamine B assay relative to control; settings: read-out: Activity
UACC-62 = test: Antiproliferative activity against human UACC-62 cells assessed as cell growth at 10 uM incubated for 48 hrs by sulforhodamine B assay relative to control; settings: read-out: Activity
SK-MEL-2 = test: Antiproliferative activity against human SK-MEL-2 cells assessed as cell growth at 10 uM incubated for 48 hrs by sulforhodamine B assay relative to control; settings: read-out: Activity
OVCAR-5 = test: Antiproliferative activity against human OVCAR-5 cells assessed as cell growth at 10 uM incubated for 48 hrs by sulforhodamine B assay relative to control; settings: read-out: Activity
UO-31 = test: Antiproliferative activity against human UO-31 cells assessed as cell growth at 10 uM incubated for 48 hrs by sulforhodamine B assay relative to control; settings: read-out: Activity
T47D = test: Antiproliferative activity against human T47D cells assessed as cell growth at 10 uM incubated for 48 hrs by sulforhodamine B assay relative to control; settings: read-out: Activity
NCI-H322M = test: Antiproliferative activity against human NCI-H322M cells assessed as cell growth at 10 uM incubated for 48 hrs by sulforhodamine B assay relative to control; settings: read-out: Activity
MDA-MB-468 = test: Antiproliferative activity against human MDA-MB-468 cells assessed as cell growth at 10 uM incubated for 48 hrs by sulforhodamine B assay relative to control; settings: read-out: Activity
EKVX = test: Antiproliferative activity against human EKVX cells assessed as cell growth at 10 uM incubated for 48 hrs by sulforhodamine B assay relative to control; settings: read-out: Activity
UACC-257 = test: Antiproliferative activity against human UACC-257 cells assessed as cell growth at 10 uM incubated for 48 hrs by sulforhodamine B assay relative to control; settings: read-out: Activity
MDA-MB-231 = test: Antiproliferative activity against human MDA-MB-231/ATCC cells assessed as cell growth at 10 uM incubated for 48 hrs by sulforhodamine B assay relative to control; settings: read-out: Activity
HCT-15 = test: Antiproliferative activity against human HCT-15 cells assessed as cell growth at 10 uM incubated for 48 hrs by sulforhodamine B assay relative to control; settings: read-out: Activity

Work on `COc1cc(CNC(=O)CCCC/C=C/C(C)C)ccc1OCc1nnc(Nc2ccc([N+](=O)[O-])cc2)o1` yielded a growth at 10 µM (CCRF-CEM) of 78.8%, a growth at 10 µM (K562) of 59.6% and a growth at 10 µM (COLO 205) of 70.9%. It also gave a growth at 10 µM (MCF7) of 55.2%, a growth at 10 µM (LOX IMVI) of 55.2% and a growth at 10 µM (HCC 2998) of 83.6%. The growth at 10 µM (DU-145) was 62%, the IC50 (HCT-116) was 8.55 µM and the growth at 10 µM (M14) was 69.6%. It also gave a growth at 10 µM (A498) of 56.8%, a growth at 10 µM (SF-539) of 70.2% and a growth at 10 µM (PC-3) of 37.6%. It also gave a growth at 10 µM (HOP-62) of 0%, a growth at 10 µM (RXF 393) of 54.1% and an IC50 (NCI-H460) of 5.41 µM. It also gave a growth at 10 µM (SW-620) of 67.3%, a growth at 10 µM (SNB-19) of 54% and a growth at 10 µM (TK-10) of 84.1%. For the same compound, the growth at 10 µM (SK-MEL-5) was 46.3%, the growth at 10 µM (Hs-578T) was 63.2% and the growth at 10 µM (ACHN) was 41.2%. It also gave a growth at 10 µM (MOLT-4) of 84.2%, a growth at 10 µM (BT-549) of 108% and a growth at 10 µM (A549) of 49%. It also gave an IC50 (SK-OV-3 [1]) of 6.4 µM, a growth at 10 µM (KM12) of 71.7% and a growth at 10 µM (SK-OV-3 [2]) of 11.8%. The growth at 10 µM (NCI-H226) was 62.1%, the growth at 10 µM (UACC-62) was 39.6% and the growth at 10 µM (SK-MEL-2) was 71.9%. The growth at 10 µM (OVCAR-5) was 101%, the growth at 10 µM (UO-31) was 58.7% and the growth at 10 µM (T47D) was 48.6%. For the same compound, the growth at 10 µM (NCI-H322M) was 54.9%, the growth at 10 µM (MDA-MB-468) was 53.8% and the growth at 10 µM (EKVX) was 74.7%. The growth at 10 µM (UACC-257) was 77.6%, the growth at 10 µM (MDA-MB-231) was 67.1% and the growth at 10 µM (HCT-15) was 81.2%.
